Results published in patent US10328075B2, “Method of treatment and compounds for use therein” (Baker Heart and Diabetes Institute, priority 2015, dated 2019).
Entries after “also recorded” stand apart in the source; their conditions may differ.

Legend:
Format in all cases: cell-based
[1] = target: T1, hFPR3 (Homo sapiens, UniProt P25089); assay: Agonist responses (ERK1/2 phosphorylation) in hFPR3-CHO cells
T1 construct: expressed in transfected cells
T1 sequence (P25089 1-353): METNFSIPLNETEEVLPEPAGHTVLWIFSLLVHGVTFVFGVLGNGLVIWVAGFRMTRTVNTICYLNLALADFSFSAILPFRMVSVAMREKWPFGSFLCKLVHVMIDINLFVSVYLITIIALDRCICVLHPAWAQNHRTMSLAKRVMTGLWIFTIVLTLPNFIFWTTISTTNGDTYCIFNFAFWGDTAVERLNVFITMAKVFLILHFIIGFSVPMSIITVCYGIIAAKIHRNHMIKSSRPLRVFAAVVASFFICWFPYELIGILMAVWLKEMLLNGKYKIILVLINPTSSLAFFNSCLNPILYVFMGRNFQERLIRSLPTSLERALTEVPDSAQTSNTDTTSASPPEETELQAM
Excerpt: cDNDA construct and generation of stable cell lines: cDNA in pcDNA3.1^+ encoding the human formyl peptide receptors (FPR) subtypes, hFPR1, hFPR2 and hFPR3 was obtained from Invitrogen. The sequences for 3 hFPR receptors were amplified by PCR and cloned into the Gateway entry vector, pDONR202™, using the BP clonase enzyme mix, according to the manufactures' instructions (Invitrogen Inc, Carlsbad, Calif., USA). All hFPR receptors constructs in pDONR201™ were subsequently transfected into the pEF5/FRT/V5/dest vector using the LR clonase enzyme mix (Invitrogen). Receptor constructs (pEF5/FRT/V5/dest) were used to transfect FIp-In CHO cells as described previously (Valant C et al., PNAS, 2014). Cells were selected using 500 μg/mL hydromycin to generate cell lines stably expressing each receptor construct. […]
Measurement of extracellular signal regulated kinase 1 and 2 phosphorylation (pERK1/2): Initial ERK1/2 phosphorylation at Thr202/Tyr204 time-course experiments were performed to determine the time at which ERK1/2 phosphorylation was maximal after stimulation by each agonist. […] Plates were incubated in the dark at 37° C. for 1 h before the fluorescence signal was measured by a Fusion-α plate reader (PerkinElmer Life and Analytical Sciences, Foster city, CA, USA) with standard AlphaScreen settings. […]

[2] = target: T2, hFPR1 (Homo sapiens, UniProt P21462); assay: ERK1/2 phosphorylation (AlphaScreen SureFire) in hFPR1-FlpIn-CHO cells
T2 construct: expressed in transfected cells
T2 sequence (P21462 1-350): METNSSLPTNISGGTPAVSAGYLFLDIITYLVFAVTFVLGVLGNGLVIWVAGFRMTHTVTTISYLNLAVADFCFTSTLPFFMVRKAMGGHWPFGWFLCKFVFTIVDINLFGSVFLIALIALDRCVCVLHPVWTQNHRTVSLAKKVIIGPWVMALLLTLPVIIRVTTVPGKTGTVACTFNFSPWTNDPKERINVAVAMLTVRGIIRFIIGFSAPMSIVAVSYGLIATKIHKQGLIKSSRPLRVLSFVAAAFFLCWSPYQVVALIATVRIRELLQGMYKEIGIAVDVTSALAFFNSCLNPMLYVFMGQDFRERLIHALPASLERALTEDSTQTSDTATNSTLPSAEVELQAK
Excerpt: (§1) cDNDA construct and generation of stable cell lines: cDNA in pcDNA3.1^+ encoding the human formyl peptide receptors (FPR) subtypes, hFPR1, hFPR2 and hFPR3 was obtained from Invitrogen. The sequences for 3 hFPR receptors were amplified by PCR and cloned into the Gateway entry vector, pDONR202™, using the BP clonase enzyme mix, according to the manufactures' instructions (Invitrogen Inc, Carlsbad, Calif., USA). All hFPR receptors constructs in pDONR201™ were subsequently transfected into the pEF5/FRT/V5/dest vector using the LR clonase enzyme mix (Invitrogen). Receptor constructs (pEF5/FRT/V5/dest) were used to transfect FIp-In CHO cells as described previously (Valant C et al., PNAS, 2014). Cells were selected using 500 μg/mL hydromycin to generate cell lines stably expressing each receptor construct. Cells were maintained and cultured in high glucose DMEM supplemented with 10% FBS, 16 mM HEPES and 500 μg/mL hydromycin at 37° C. under a humidified atmosphere containing 5% CO2.
(§2) In the various assays described below, cells were plated into 96-well transparent cell culture plates at 4×10^4 cells per well, cultured overnight in serum-free media at 37° C. in 5% CO2.
(§3) Measurement of extracellular signal regulated kinase 1 and 2 phosphorylation (pERK1/2): Initial ERK1/2 phosphorylation at Thr202/Tyr204 time-course experiments were performed to determine the time at which ERK1/2 phosphorylation was maximal after stimulation by each agonist. Cells were seeded onto transparent 96-well cell culture plates at 4×10^4 cells per well. After 6 h, cells were washed once with PBS, and then incubated in serum-free DMEM overnight, to allow FBS-stimulated phosphorylated ERK1/2 levels to subside. […] 10% (v/v) FBS was used as a positive control, with vehicle controls also included. The reaction was terminated by removal of study drugs and lysis of cells with 100 μL of SureFire lysis buffer (TGR Biosciences). Cell were lysed in SureFire lysis buffer and transferred to 384-well opaque proxiplates. Under low-light conditions, a 1:120 (v:v) dilution of AlphaScreen beads (both acceptor and donor):Surefire reaction buffer was prepared, which was mixed with the activation buffer in a ratio of 6:1 (v:v), respectively. Plates were incubated in the dark at 37° C. for 1 h before the fluorescence signal was measured by a Fusion-α plate reader (PerkinElmer Life and Analytical Sciences, Foster city, CA, USA) with standard AlphaScreen settings. Data were normalized to the maximal response elicited by 10% (v/v) FBS at the same time point.
(§4) Receptor mediated pERK1/2 levels were determined using the AlphaScreen™ ERK1/2 SureFire™ kit, as described previously (Keov, P et al., 2014). For all experiments, 10% FBS was used as internal positive control to stimulate pERK1/2, and which the maximum responses were used for normalization of data, whilst vehicle was used as negative control.
(§5) Data analysis: All data were analysed using GraphPad Prism 6.0 (GraphPad Software, San Deigo, Calif., USA). Where appropriate, concentration-response curves were fitted to derive the maximal agonist effect (Emax), and the ligand potency estimate (pEC50), where Emax is the maximal possible response of the system (not the agonist), basal is the basal level of response in the absence of agonist, and pEC50 is the negative logarithm of the agonist concentration that gives a response halfway between Emax and basal.
(§6) In the present study, FIp-IN CHO cells and Gateway plasmid were obtained from Invitrogen Inc (Carlsbad, Calif., USA). The sequences for all 3 known human FPRs (hFPR1, hFPR2 and hFPR3) were amplified by PCR and cloned into the Gateway entry vector, pDONR202TM, using the BP clonase enzyme mix, according to the manufacturers' instructions. The hFPR pDONR201TM constructs were subsequently transfected into the pEF5/FRT/V5/dest vector using the LR clonase enzyme mix (Invitrogen).

[3] = target: T3, hFPR2 (Homo sapiens, UniProt P25090); assay: ERK1/2 phosphorylation (AlphaScreen SureFire) in hFPR2-FlpIn-CHO cells
T3 construct: expressed in transfected cells
T3 sequence (P25090 1-351): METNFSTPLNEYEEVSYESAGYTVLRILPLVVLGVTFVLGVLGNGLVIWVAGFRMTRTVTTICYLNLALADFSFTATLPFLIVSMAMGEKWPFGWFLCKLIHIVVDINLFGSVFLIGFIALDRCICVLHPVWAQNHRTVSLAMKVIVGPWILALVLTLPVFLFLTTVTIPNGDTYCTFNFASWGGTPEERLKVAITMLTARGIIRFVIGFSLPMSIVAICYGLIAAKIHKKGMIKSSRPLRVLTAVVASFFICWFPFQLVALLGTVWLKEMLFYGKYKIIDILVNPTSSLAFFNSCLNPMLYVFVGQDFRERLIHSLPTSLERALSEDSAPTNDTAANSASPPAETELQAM
Excerpt: as §1, §2, §3, §4, §5, §6

Compound: CCCCC[C@H](O)/C=C/C=C\C=C\C=C\[C@@H](O)[C@@H](O)CCCC(=O)O [LxA4, lipoxin-A4]
- Agonist response (ERK-phosphorylation) in hFPR3-CHO cells [1]: failed to stimulate; also recorded: without effect
- ERK-phosphorylation at hFPR1 (in words) [2]: failed to stimulate; also recorded: without effect
- ERK-phosphorylation at hFPR2 (in words) [3]: failed to stimulate; also recorded: without effect
